# Patent US9593305B2, “Differentiation of pluripotent stem cells” (Janssen Biotech, Inc., priority 2008, dated 2017)
# Test system: H1 human embryonic stem cells
# Test: Compound 34 with growth factor combinations including GDF-8, no activin A (Example 7, Table 6)
# Format: cell-based
# Method: Clusters of H1 human embryonic stem cells were grown on reduced growth factor […]™ (Invitrogen; Cat #356231)-coated tissue culture plastic. Cells were passaged using collagenase (Invitrogen; Cat #17104-019) treatment and gentle scraping, washed to remove residual enzyme, and plated with even dispersal at a ratio of 1:1 (surface area) on reduced growth factor […]™-coated 96-well black plates (Packard ViewPlates; PerkinElmer; Cat #6005182) using volumes of 100 μl/well. Cells were allowed to attach as clusters and then recover log phase growth over a 1 to 3 day period, feeding daily with MEF conditioned medium supplemented with 8 ng/ml bFGF (R&D Systems; Cat #233-FB). Plates were maintained at 37° C., 5% CO2 in a humidified box throughout the duration of assay.
# Stocks of growth factors purchased from R&D Systems were EGF (Cat #236-EG), FGF4 (Cat #235-F4), PDGF-A (Cat #221-AA), PDGF-D (Cat #1159-SB), PDGF-A/B (Cat #222-AB), VEGF (Cat #293-VE), and GDF-8 (Cat #788-G8). Muscimol was purchased from Tocris (Cat #0289). All growth factors were solubilized in PBS with 0.1% BSA (Sigma; Cat #A7888) and stored frozen at −80° C. Muscimol was solubilized in 100% DMSO (Sigma; Cat #D2650) and stored frozen at −80° C. Cyclic aniline-pyridinotriazine compounds were available as 5 mM stocks in 96-well plate format, solubilized in 100% DMSO and stored at −80° C. Compound 34 was further diluted to an intermediate concentration of 0.2 mM in 50 mM HEPES (Invitrogen; Cat #15630-080), 20% DMSO and stored at 4° C. All growth factors and inhibitors were prepared in a deep well, 96-well polypropylene plate, diluted to 5× intermediate stocks in DMEM:F12 base medium at the beginning of assay and stored at 4° C.
# A secondary screening assay was conducted, testing in triplicate and feeding on alternate days over the four-day assay timeframe. Assays were initiated by aspirating culture medium from each well followed by three washes in PBS to remove residual growth factors and serum. […] All remaining growth factors were tested at a final assay concentration of 50 ng/ml (EGF, FGF4, PDGF-A, PDGF-A/B, VEGF) with the exception of GDF-8 tested at 25 ng/ml. Final assay concentration of muscimol was 20 μM. […]
# On day 3, wells were aspirated and fed with 80 μl DMEM:F12 base medium supplemented with 2.5% FCS (HyClone) and 3.125 μM Compound 34 plus 20 μl 5× stock of growth factors or small molecules per well to yield a final concentration of 2% FCS and 2.5 μM Compound 34 (omitting Wnt3a) and as denoted on day one for all remaining growth factors or small molecules. Positive control wells (100 μl/well) contained the same base medium supplemented with 2% FCS and 100 ng/ml activin A, omitting Wnt3a. Negative control wells (100 μl/well) contained the same base medium with 2% FCS, omitting both activin A and Wnt3a.
# At the conclusion of four-days of culture, assay plates were washed twice with PBS, fixed with 4% paraformaldehyde (Alexis Biochemical; Cat ALX-350-011) at room temperature for 20 minutes, then washed three times with PBS and permeabilized with 0.5% Triton X-100 (Sigma; Cat #T8760-2) for 20 minutes at room temperature. Cells were washed again three times with PBS and blocked with 4% chicken serum (Invitrogen; Cat #16110082) in PBS for 30 minutes at room temperature. Primary antibody (goat anti-human SOX17; R&D Systems; cat #AF1924) was diluted 1:100 in 4% chicken serum and added to each well for one hour at room temperature. Alexa Fluor 488 conjugated secondary antibody (chicken anti-goat IgG; Molecular Probes; Cat #AZ1467) was diluted 1:200 in PBS and added to each sample well after washing three times with PBS. To counterstain nuclei, 4 μg/ml Hoechst 33342 (Invitrogen; Cat #H3570) was added for ten minutes at room temperature. Plates were washed once with PBS and left in 100 μl/well PBS for imaging. […]
# [1] = no AA (with Wnt3a), EGF + FGF4 + PDGF-A + VEGF + PDGF-D + Muscimol + GDF8
# [2] = no AA (with Wnt3a), GDF8 + PDGF-D
# [3] = no AA (with Wnt3a), GDF8 + PDGF-D + VEGF
# [4] = no AA (with Wnt3a), GDF8 + PDGF-D + VEGF + Muscimol
# [5] = no AA (with Wnt3a), GDF8 + VEGF + Muscimol
# [6] = no AA (with Wnt3a), PDGF-D + Muscimol
# [7] = no AA (with Wnt3a), PDGF-D + Muscimol + VEGF
# [8] = no AA (with Wnt3a), PDGF-D + VEGF
# [9] = no AA (with Wnt3a), VEGF + Muscimol
# [10] = no AA, no Wnt3a, EGF + FGF4 + PDGF-A + VEGF + PDGF-D + Muscimol + GDF8
molecule,measurement,setting,value
"O=C1CCN2CCN(CC2)Cc2cc(Cl)cc(c2)Nc2ncnc(n2)-c2cncc(c2)CCCN1 [Compound 34, 5-Chloro-1,8,10,12,16,22,26,32-octaazapentacyclo[24.2.2.1˜3.7˜0.1˜9,13˜0.1˜14.18˜]tritriaconta-3(33), 4,6,9(32), 10,12,14(31), 15,17-nonaen-23-one]",SOX17 expression (% of control),"2.5 μM Compound 34 with GDF-8 (25 ng/ml) and Wnt3a, no activin A",88 % of control
same,"Cell Number, % of positive control","no AA (with Wnt3a), EGF",85.53%
same,"Cell Number, Average Total Cell Number","no AA (with Wnt3a), EGF",6145
same,"Sox17 Expression, % of positive control","no AA (with Wnt3a), EGF",19.18%
same,"Sox17 Expression, Average Total Intensity","no AA (with Wnt3a), EGF",1.5E+07
same,"Cell Number, % of positive control",[1],83.90%
same,"Cell Number, Average Total Cell Number",[1],6028
same,"Sox17 Expression, % of positive control",[1],87.44%
same,"Sox17 Expression, Average Total Intensity",[1],7.0E+07
same,"Cell Number, % of positive control","no AA (with Wnt3a), FGF4",74.09%
same,"Cell Number, Average Total Cell Number","no AA (with Wnt3a), FGF4",5323
same,"Sox17 Expression, % of positive control","no AA (with Wnt3a), FGF4",33.75%
same,"Sox17 Expression, Average Total Intensity","no AA (with Wnt3a), FGF4",2.7E+07
same,"Cell Number, % of positive control","no AA (with Wnt3a), GDF8",88.44%
same,"Cell Number, Average Total Cell Number","no AA (with Wnt3a), GDF8",6354
same,"Sox17 Expression, % of positive control","no AA (with Wnt3a), GDF8",88.59%
same,"Sox17 Expression, Average Total Intensity","no AA (with Wnt3a), GDF8",7.1E+07
same,"Cell Number, % of positive control",[2],95.88%
same,"Cell Number, Average Total Cell Number",[2],6889
same,"Sox17 Expression, % of positive control",[2],72.59%
same,"Sox17 Expression, Average Total Intensity",[2],5.8E+07
same,"Cell Number, % of positive control",[3],77.74%
same,"Cell Number, Average Total Cell Number",[3],5585
same,"Sox17 Expression, % of positive control",[3],81.75%
same,"Sox17 Expression, Average Total Intensity",[3],6.6E+07
same,"Cell Number, % of positive control",[4],131.60%
same,"Cell Number, Average Total Cell Number",[4],9455
same,"Sox17 Expression, % of positive control",[4],119.24%
same,"Sox17 Expression, Average Total Intensity",[4],9.6E+07
same,"Cell Number, % of positive control",[5],84.67%
same,"Cell Number, Average Total Cell Number",[5],6083
same,"Sox17 Expression, % of positive control",[5],69.62%
same,"Sox17 Expression, Average Total Intensity",[5],5.6E+07
same,"Cell Number, % of positive control","no AA (with Wnt3a), Muscimol",101.41%
same,"Cell Number, Average Total Cell Number","no AA (with Wnt3a), Muscimol",7286
same,"Sox17 Expression, % of positive control","no AA (with Wnt3a), Muscimol",38.38%
same,"Sox17 Expression, Average Total Intensity","no AA (with Wnt3a), Muscimol",3.1E+07
same,"Cell Number, % of positive control","no AA (with Wnt3a), PDGF-A",58.11%
same,"Cell Number, Average Total Cell Number","no AA (with Wnt3a), PDGF-A",4175
same,"Sox17 Expression, % of positive control","no AA (with Wnt3a), PDGF-A",13.43%
same,"Sox17 Expression, Average Total Intensity","no AA (with Wnt3a), PDGF-A",1.1E+07
same,"Cell Number, % of positive control","no AA (with Wnt3a), PDGF-D",69.84%
same,"Cell Number, Average Total Cell Number","no AA (with Wnt3a), PDGF-D",5017
same,"Sox17 Expression, % of positive control","no AA (with Wnt3a), PDGF-D",18.76%
same,"Sox17 Expression, Average Total Intensity","no AA (with Wnt3a), PDGF-D",1.5E+07
same,"Cell Number, % of positive control",[6],48.57%
same,"Cell Number, Average Total Cell Number",[6],3490
same,"Sox17 Expression, % of positive control",[6],8.02%
same,"Sox17 Expression, Average Total Intensity",[6],6.5E+06
same,"Cell Number, % of positive control",[7],29.68%
same,"Cell Number, Average Total Cell Number",[7],2133
same,"Sox17 Expression, % of positive control",[7],3.32%
same,"Sox17 Expression, Average Total Intensity",[7],2.7E+06
same,"Cell Number, % of positive control",[8],70.01%
same,"Cell Number, Average Total Cell Number",[8],5030
same,"Sox17 Expression, % of positive control",[8],14.58%
same,"Sox17 Expression, Average Total Intensity",[8],1.2E+07
same,"Cell Number, % of positive control","no AA (with Wnt3a), VEGF",65.60%
same,"Cell Number, Average Total Cell Number","no AA (with Wnt3a), VEGF",4713
same,"Sox17 Expression, % of positive control","no AA (with Wnt3a), VEGF",12.49%
same,"Sox17 Expression, Average Total Intensity","no AA (with Wnt3a), VEGF",1.0E+07
same,"Cell Number, % of positive control",[9],10.81%
same,"Cell Number, Average Total Cell Number",[9],776
same,"Sox17 Expression, % of positive control",[9],1.56%
same,"Sox17 Expression, Average Total Intensity",[9],1.3E+06
same,"Cell Number, % of positive control","no AA (with Wnt3a), none",64.18%
same,"Cell Number, Average Total Cell Number","no AA (with Wnt3a), none",4611
same,"Sox17 Expression, % of positive control","no AA (with Wnt3a), none",17.21%
same,"Sox17 Expression, Average Total Intensity","no AA (with Wnt3a), none",1.4E+07
same,"Cell Number, % of positive control",[10],66.21%
same,"Cell Number, Average Total Cell Number",[10],4757
same,"Sox17 Expression, % of positive control",[10],48.77%
same,"Sox17 Expression, Average Total Intensity",[10],3.9E+07
"GDF-8: growth factor GDF-8, also known as myostatin, member of the TGF-β family",SOX17 expression,GDF-8 25 ng/ml in any combination with Compound 34,substantial increase in SOX17 expression
